Laboratory results from article PMC7283928, “In vitro Mechanistic Exploration of Novel Spiropyrrolidine Heterocyclic Hybrids as Anticancer Agents” (Frontiers in Chemistry, 2020).
Read-outs that look alike come from different tables or passages of the source.

Legend:
[1] = test system: A549 cells; experiment: Apoptosis assay (PI / Annexin V-FITC) in A549 cells; format: cell-based, human; settings: for live cells: lower left quadrant; for apoptotic cells: lower right quadrant; for late apoptotic or early necrosis cells: upper right quadrant; for cells experiencing the apoptotic pathway: A549, 48 h incubation (Figure S12)
Method: (§1) In order to study the molecular biology effects of synthesized spiropyrrolidine heterocyclic hybrids, we have used the in vitro toxicology tests and for that, two different cell types, each of cancer and non-cancer origin were employed. The non-cancer cell lines include the L929 mouse fibroblasts and MCF10 breast cells, while the cancer cell lines are A549 human alveolar basal epithelial cells and Jurkat human T lymphocyte cells. […] All the biological studies were carried by selecting Camptothecin (CPT) as a positive control and the cells of no treatment as the negative control. The reason for selecting this particular compound as a positive control is that it is a well-known anticancer agent and acts by the mechanism of topoisomerase I inhibition along with the DNA cleavage, subsequent inhibition of litigation, and finally leads to DNA strand breaks. The detailed procedures for the cell culturing and assay protocols were mentioned elaborately in our earlier publications (Bwatanglang et al., [2016a],[b]; Kumar et al., [2018]). Each experiment was repeated thrice and the results expressed as the mean ± standard deviation of all the data values. From the graph, the ^* and ^** corresponds to p < 0.05 and p < 0.01 vs. the untreated-control measurements.
The compound 5e induced apoptotic pathway for A549 treated cells over a 24 h period is compared against the positive (CPT, 30 μM) and negative controls and the results are shown in Figure 3. Similarly, the apoptosis study over the 48 h exposure period is shown in the supporting information of Figure S12. As compared to the behavior of cells shown in Figures 3A-1,B-1, the compound 5e treated cells (C-1) are experiencing a significant amount of apoptotic pathway. […] These numbers for the compound 5e treated cells are getting shifted to 39% of live cells, 40% apoptotic, and 18% late apoptotic or early necrosis pathways. The observation of only 9% apoptotic cells for the CPT treated cells while 40% for the 5e treated cells provides a preliminary indication of the way of handling the cancer cells by the compound 5e. Since the CPT acts directly onto the cancer cells and responsible for the accidental or irreversible pathway of reducing the cancer cell number and however, the compound 5e works in a systematic way and induces the cancer cell death almost similar to CPT. […] Since the cells which are experiencing the apoptotic pathway can be reversible and in that way the healthy normal cells can be reverted to their normal stage and at the same time the cancer cells can be molded to the late apoptotic or early necrosis pathways by applying some physiological changes to the cells.
Figure 3 Comparison of the apoptosis assay results for 5e treated cells along with the CPT treated and untreated cells over 24 h period for A549 cells. From the figure, A-1 & A-2 corresponds to the negative control, B-1 & B-2 for the positive control of CPT, and C-1 & C-2 for our testing sample 5e.

[2] = test system: A549 human alveolar basal epithelial cells; experiment: MTT cell viability and proliferation assay, A549 cells; format: cell-based
Method: as §1
(§2) Also, the loss of viability seems to be increased with an increase in the concentration and incubation period and this provides the preliminary information that the tested compounds are maintaining some levels of therapeutic behavior toward the cancer cells and if it can be guided carefully, can lead to the anticancer activity. […] This difference in the sensitivity of two cancer cells to the same testing compound can be attributed to the changes in the resistive response of each cell types which is supported by the intracellular protein mechanisms (Mohammad et al., [2014]; Bwatanglang et al., [2017]). Since the amount of intracellular proteins secreted by the cells are unique to each individual cell type and so in that way some cells may react very fast as compared to the others. Also, the efficiency of any chemotherapeutic agent is decided by its ability to reduce the cell count at the earliest possible time and in that way we have identified the A549 cells to be the highly responsive cell type to the compound 5e over a 24 h period as compared to the other compounds, cells, and time periods. The visual observation of cells by means of microscopic observation also be confirming for a decrease in the number of cells for the compound 5e treated cells as against the positive control of CPT (30 μM) and negative control of without any treatment (Figures S11, S11a). […] In a general way, our interest is with the therapeutic agent of higher efficiency at the shortest exposure period and so we carried the following mechanistic studies linked to the cell death for the compound 5e at the 24 h exposure period only.

[3] = test system: caspases in A549 cells; experiment: Caspase activity by fluorescence microscopy in A549 cells; format: cell-based, human; settings: A549, 24 h, 5e at IC50, compared with CPT treated cells (Figure 4B)
Method: as §1, with “The detailed procedures for the cell culturing and assay protocols were mentioned elaborately in our earlier publications (Bwatanglang et al., [2016a],[b]; Kumar et al., [2018]).” left out, “From the graph, the ^* and ^** corresponds to p < 0.05 and p < 0.01 vs. the untreated-control measurements.” left out
Based on the results provided by the apoptotic assay, compound 5e was further tested toward the role of caspases as these are the proteins which get released in response to the specific death stimuli. […] Similarly, the observation of no such green fluorescence in the cytoplasm of cells shown in Figure 4A means that there is no initiation of such pathways in that particular culture.

[4] = test system: Jurkat human T lymphocyte cells; experiment: MTT cell viability and proliferation assay, Jurkat cells; format: cell-based; settings: for IC50: Homo sapiens, MTT
Method: as §1, §2

[5] = MTT cell viability assay, non-cancer L929 cells; format: cell-based; settings: mouse, L929 mouse fibroblast cells (non-cancer)
Method: as §1, with “measurements. […]” for “measurements.”

[6] = MTT cell viability assay, non-cancer MCF10 cells; format: cell-based; settings: human, MCF10 breast cells (non-cancer)
Method: as §1, with “measurements. […]” for “measurements.”

[7] = A549, 24 h, 5e at IC50 (55 μM), CPT 30 μM
[8] = 24 h incubation, read-out: IC50 μM (24 h) A549
[9] = 48 h incubation, read-out: IC50 μM (48 h) A549
[10] = 24 h incubation, read-out: IC50 μM (24 h) Jurkat
[11] = 48 h incubation, read-out: IC50 μM (48 h) Jurkat

SMILES	IC50 [2, 8]	IC50 [2, 9]	IC50 [4, 10]	IC50 [4, 11]	further results
COc1ccc(C2C([N+](=O)[O-])C(Cc3ccc(O)cc3)N(C)C23C(=O)c2cccc4cccc3c24)cc1 (stereo not shown) [5e, Spiro[acenaphthene-2′.2-pyrrolidin]-1′-one]	55.2 ± 2.15 µM	20.5 ± 3.6 µM			live cells [1, 7]: 39%; apoptotic cells [1, 7]: 40%; late apoptotic or early necrosis cells [1, 7]: 18%; cells experiencing the apoptotic pathway [1]: 88%; caspase release (green fluorescence in cytoplasm) [3]: higher than the corresponding cells shown in Figure 4B
CN1C(Cc2ccc(O)cc2)C([N+](=O)[O-])C(c2cccc([N+](=O)[O-])c2)C12C(=O)c1cccc3cccc2c13 (stereo not shown) [5f, Spiro[acenaphthene-2′.2-pyrrolidin]-1′-one]					loss of cell viability ([4]; highest concentration of 100 μM, 48 h): 90%
CN1C(Cc2ccc(O)cc2)C([N+](=O)[O-])C(c2cccc([N+](=O)[O-])c2)C12C(=O)c1cccc3cccc2c13 (stereo not shown) [C00006]	70.7 ± 3.45 µM	41.2 ± 2.4 µM	92.5 ± 2.8 µM	62.5 ± 4.4 µM	
CC[C@@]1(O)C(=O)OCc2c1cc1n(c2=O)Cc2cc3ccccc3nc2-1 [CPT, Camptothecin]					M2 (cells experiencing the apoptotic pathway) [1, 7]: 48%; live cells [1, 7]: 45%; apoptotic cells [1, 7]: 9%; late apoptotic or early necrosis cells [1, 7]: 36%; cells experiencing the apoptotic pathway [1]: 63%; mortality at 30 μM [5]: ~50%; mortality at 30 μM [6]: ~50%

Continued, in another order:

IC50 [2, 8]	IC50 [2, 9]	IC50 [4, 10]	IC50 [4, 11]	SMILES	further results
84.2 ± 4.2 µM	68.5 ± 3.1 µM	65.6 ± 2.1 µM	31.4 ± 2.3 µM	CN1C(Cc2ccc(O)cc2)C([N+](=O)[O-])C(c2ccccc2)C12C(=O)c1cccc3cccc2c13 (stereo not shown) [C00001]	
79.5 ± 3.15 µM	36.2 ± 4.5 µM	82.4 ± 4 µM	52.2 ± 3.5 µM	CN1C(Cc2ccc(O)cc2)C([N+](=O)[O-])C(c2ccc(Br)cc2)C12C(=O)c1cccc3cccc2c13 (stereo not shown) [C00002]	
77.3 ± 4.56 µM	52.3 ± 2.2 µM	63.2 ± 3.2 µM	59.5 ± 4.1 µM	CN1C(Cc2ccc(O)cc2)C([N+](=O)[O-])C(c2ccc(Cl)cc2)C12C(=O)c1cccc3cccc2c13 (stereo not shown) [C00003]	
82.1 ± 2.55 µM	70.2 ± 2.8 µM	78.2 ± 2.6 µM	47.5 ± 3.8 µM	Cc1ccc(C2C([N+](=O)[O-])C(Cc3ccc(O)cc3)N(C)C23C(=O)c2cccc4cccc3c24)cc1 (stereo not shown) [C00004]	
		81.2 ± 3.1 µM	61.2 ± 4.6 µM	COc1ccc(C2C([N+](=O)[O-])C(Cc3ccc(O)cc3)N(C)C23C(=O)c2cccc4cccc3c24)cc1 (stereo not shown) [C00005]	
